Test results: patent publication US12622906B2, “Treatment and prognosis of pancreatic cancer” (Cambridge Enterprise Limited, priority 2019, dated 2026)

Assays:
CCR1 expression = CCR1 expression in PDAC cells after prolonged co-culture with BMDM (qRT-PCR, flow cytometry); assay type: cell-based, murine; details: PDAC cells co-cultured with BMDM; by qRT-PCR and flow cytometry
Method: Culture conditions for PDAC and BMDM cell lines used in this study are described above. For co-cultures, mCherry-labelled PDAC cells were mixed 1:1 with ZsGreen-labelled macrophages, typically primary BMDM unless otherwise noted. Co-cultures were seeded and kept as subconfluent cultures for 48-96 hours in either 2D or 3D conditions.
Total RNA was isolated and purified from cells using Qiazol reagent and miRNeasy mini kit (Qiagen). cDNA was synthesized using the High Capacity RNA-to-cDNA kit (ABI) according to manufacturer's instructions. qRT-PCR was performed using Power SYBR Green PCR Master Mix (ABI) on the TaqMan 7900 (ABI). Relative expression levels were defined using the ΔΔCt method and normalizing to 18S rRNA and/or GAPDH.
Pre-treatment: PDAC cells and BMDM were pre-treated with CCR1 antagonists 24 hours prior to the start of the experiment, harvested and then seeded according to the co-culture method previously described for the duration of the experiment.
Treatment at time of co-culture: PDAC cells and BMDM were seeded according to the co-culture method as previously described and CCR1 antagonists were treated at the time of seeding and allowed to incubate for the duration of the experiment. […]

PDAC cells = test: 3D in vitro assay of invasion, PDAC cells co-cultured with BMDM (IncuCyte Zoom, NeuroTrack); assay type: cell-based, murine; details: 3D co-culture of PDAC cells with BMDM; pre-treatment 24 hours or treatment at time of co-culture
Method: Cell-matrix cultures were performed by seeding PDAC cells onto wells pre-coated with 1 mg/mL Matrix Growth Factor Reduced Matrigel (Becton Dickinson). To observe cell invasion through Matrigel, plates were placed into IncuCyte Zoom (Essen Bioscience) with the software set to capture images every 3 hours in green and fluorescent protein (GFP/RFP)/Bright Field (or Phase Contrast).
For co-cultures, mCherry-labelled PDAC cells were mixed 1:1 with ZsGreen-labelled macrophages, typically primary BMDM unless otherwise noted. Co-cultures were seeded and kept as subconfluent cultures for 48-96 hours in either 2D or 3D conditions.
To quantify the invasive capacity of PDAC cells, 3D in vitro invasion assays were quantified using software provided by Essen Bioscience, NeuroTrack. […] Unlike high-content imaging systems, which require fixation, staining, and endpoint analysis of cells, the algorithm measured live-cell dynamics. […] Once parameters were defined, they were applied to all 3D in vitro invasion assays for quantification.
The NeuroTrack software measures fluorescent-labelled cells. […] In this method, only PDAC cells that have invaded out of 3D structures are counted if they have a fluorescent mCherry label present in their nucleus. Data is plotted with number of nuclei counted on the y-axis and time on the x-axis. […]

[1] = tested on: fibroblasts and macrophages; test: Viability of non-cancerous cells treated with CCR1 antagonist; assay type: cell-based; details: compared with vehicle control

Row | Compound | induction of CCR1 expression due to prolonged co-culture (CCR1 expression) | macrophage-mediated pro-invasive phenotype of PDAC cells (PDAC cells) | viability of fibroblasts and macrophages [1]
1 | CC[N@+]1(C/C2=C/CCCCCC2)CC[C@@H](NC(=O)C2c3cc(Cl)ccc3Oc3ccc(Cl)cc32)CC1.[I-] [J113863, 1,4-cis-1-(1-cycloocten-1-ylmethyl)-4-[[(2,7-dichloro-9H-xanthen-9-yl)carbonyl]amino]-1-ethylpiperidinium iodide] | blunting the induction of CCR1 expression | striking ability to rein in the effect of macrophages to confer functional pro-invasive abilities to PDAC cells | 
2 | C[C@@H]1CN(Cc2ccc(F)cc2)CCN1C(=O)COc1ccc(Cl)cc1NC(N)=O [BX-471, (2R)-1-[[2-[(Aminocarbonyl)amino]-4-chlorophenoxy]acetyl]-4-[(4-fluorophenyl)methyl]-2-methylpiperazine] |  | striking ability to rein in the effect of macrophages to confer functional pro-invasive abilities to PDAC cells | just as viable as cell treated with vehicle control
